{
  "source": "patent US8192962B2",
  "about": "“Processes for detecting toxic substances” (Daikin Industries, Ltd., priority 2001, dated 2012)",
  "system": "Transport facilitation protein genes",
  "test": "DNA chip mRNA expression in yeast, transport facilitation protein genes (Table 5)",
  "type": "cell-based, Saccharomyces cerevisiae S288C",
  "protocol": "Yeast (Saccharomyces cerevisiae S288C (α SUC2mal mel gap2 CUP1)) were incubated at 25° C. on YPD medium (yeast extract 1%, polypepton 2%, glucose 2%). One of toxic chemical substances was added to the cells at logarithmic growth phase, and the cells were further incubated for two hours. Cells were cultured without any chemical substance in the same condition, and were used as control. Concentrations of the chemical substances were defined to inhibit the growth of the yeast but not lead to death.\nAfter completion of the incubation, the culture was centrifuged to collect the cells. To the cells, sodium acetate buffer (50 mM sodium acetate, 10 mM EDTA, 1% SDS) was added, and the mixture was shaken at 65° C. for five minutes, followed by returning to room temperature, and obtaining the supernatant, of which the procedures were repeated two times. To the supernatant, ½ amount of a solution of phenol/chloroform was added, and the mixture was centrifuged to give a supernatant, which was added with an equal amount of chloroform, and the mixture was centrifuged to give a supernatant. To the supernatant, an equal amount of isopropanol containing 0.3 M sodium acetate was added, and the mixture was allowed to stand at room temperature for 30 minutes, after which the mixture was centrifuged to give a sediment of the whole RNAs. Seventy % ethanol was added to the sediment, and the mixture was again centrifuged to give a sediment, which was then dried and dissolved in water. mRNA was isolated from the whole RNAs as followings. In view of the fact that a poly A chain is attached to the 3′ terminus of mRNA, a polynucleotide having a poly T structure which was immobilized on the surface of latex beads was used to trap the mRNA, and then the mRNA was washed and eluted with spine column (Oligotex-dT30<Super>mRNA Purification Kit, Takara). Reverse transcription of the mRNA was conducted with a reverse transcriptase (Super Script II Reverse Transcriptase; catalogue No. 18064-014, GibcoBRL) using fluorescence-labeled nucleotides to give cDNAs that were introduced with Cy3-dUTP or Cy5-dUTP during the reverse transcription.\nThe labeled cDNAs were dissolved in TE buffer (10mM Tris-HCl/1 mM EDTA, pH8.0), and the solution was dropped on the DNA chip containing the whole genes of yeast (DNA Chip Research Inc. Japan) so that the cDNAs were hybridized on the DNA chip at 65° C. for over 12 hours. The fluoresces intensity of the DNA chip was read with a scanner, and the ratio relative to the fluorescence intensity resulting from the absence of chemical substance was estimated as the following, which is shown in Tables 1 to 9: […]",
  "data": [
    {"molecule": "C[S+](C)[O-]", "note": "[(15), dimethylsulfoxide]", "values": [
      {"measurement": "The level of expressed mRNA in the presence of chemical substance/The level of expressed mRNA in the absence of chemical substance", "setting": "yeast gene YBR052C", "value": 0.7},
      {"measurement": "The level of expressed mRNA in the presence of chemical substance/The level of expressed mRNA in the absence of chemical substance", "setting": "yeast gene YIL022W", "value": 2.9},
      {"measurement": "The level of expressed mRNA in the presence of chemical substance/The level of expressed mRNA in the absence of chemical substance", "setting": "yeast gene YKL016C", "value": 0.7},
      {"measurement": "The level of expressed mRNA in the presence of chemical substance/The level of expressed mRNA in the absence of chemical substance", "setting": "yeast gene YLR081W", "value": 0.7},
      {"measurement": "The level of expressed mRNA in the presence of chemical substance/The level of expressed mRNA in the absence of chemical substance", "setting": "yeast gene YPR194C", "value": 0.4}
    ]}
  ]
}
